The subject of the test is NIH3T3/vSrc cells. Kind of test: WST-1 cell viability/proliferation assay, NIH3T3/vSrc. Type of test: cell-based, mouse. On the procedure:
Initial in vitro whole-cell experiments were conducted against normal mouse NIH-3T3 fibroblasts and v-src-transformed counterparts (NIH-3T3/v-src) that harbor aberrant STAT3. Inhibitor effects upon cell viability, proliferation, and cytotoxicity were assessed through WST-1, a cell proliferation reagent that measures the metabolic activity of viable cells. […] It is assumed that the predominantly hydrophobic nature of these compounds facilitated successful permeation of the cell membrane despite the phosphate.

Consider `CC(C)C[C@H](NC(=O)[C@H](Cc1ccc(OP(=O)(O)O)cc1)NC(=O)c1ccc(C#N)cc1)C(=O)O` [ISS610], for which the “inhibitor concentration required for suppression in whole cells” value is listed as “millimolar concentrations”.

The record behind these values is patent US8969578B2, “Inhibitors of STAT3” (University of Central Florida Research Foundation, Inc., priority 2008, dated 2015).
